Key:
Format in all cases: in vivo
[1] = tested on: coronary ischemia-reperfusion model using dogs; experiment: Arrhythmia during coronary ischemia and reperfusion (electrocardiogram); conditions: dog; for Number of Ventricular Premature Beats, 1 Hour of Reperfusion / Total Duration of Ventricular Tachycardia, 1 Hour of Reperfusion / effect on total duration of ventricular tachycardia during reperfusion / occurrence of arrhythmia (ventricular premature beats) during reperfusion: 10 mg/kg i.v. just before reperfusion; for Number of Ventricular Premature Beats, 2 Hours of Ischemia / Total Duration of Ventricular Tachycardia, 2 Hours of Ischemia: during 2 h ischemia, before the drug was given
Procedure: After anesthetizing 52 adult mongrel dogs of either sex weighing ca. 10 kg by intraperitoneal administration of 50 mg/kg of sodium pentobarbital, breathing tubes were immediately intubated endotracheally and artificial ventilation was continued using a Harvard ventilator. Electrocardiogram electrodes were attached, and monitoring and recording were continued throughout the experiment. Following insertion of cannulas in the right femoral vein and right femoral artery, the cannulas were used for continuous intravenous drip of physiological saline to replenish water or administration of the test preparation, and monitoring of arterial blood pressure, respectively. After performing left thoracotomy in the fourth or fifth intercostal space, the pericardium was torn to expose the heart. Ischemia was induced by ligating the left anterior descending coronary artery immediately distal to the first diagonal branch, while reperfusion was performed by subsequently removing that ligation.
The animals were divided into four groups. Group 1 (n=9) was subjected to ischemia for 2 hours, group 2 (n=17) was subjected to ischemia for 2 hours followed by reperfusion for 1 hour, group 3 (n=10) was subjected to ischemia for 2 hours followed by reperfusion for 1 hour plus intravenous injection of 10 mg/kg of γ-GCE just before reperfusion, and group 4 (n=16) was subjected to 2 hours of ischemia followed by 1 hour of reperfusion plus intravenous injection of 10 mg/kg of reduced glutathione (GSH, control drug) just before reperfusion.
Evaluation of arrhythmia was performed by analyzing the electrocardiogram to determine the presence of arrhythmia, or in other words, the number of ventricular premature beats, as well as the total duration of ventricular tachycardia, which was defined as more than three successive ventricular premature beats.

[2] = tested on: liver ischemia-reperfusion model using rats; experiment: Adenine nucleotides concentration in liver tissue during liver ischemia-reperfusion; conditions: rat, 50 mg/kg i.v.; for effect on restoration of liver ATP following reperfusion: 1 hour reperfusion
Procedure: Male Wister rats weighing 250-300 g were fasted with free access to water 24 hours before the experiment. Seventy-two rats were divided into three groups of 24 animals each, i.e., the control group, the GSH administration group and the γ-GCE-administration group. Each rat was anesthetized by intraperitoneal administration of 40 mg/0.8 ml/kg of sodium pentobarbital, and the femoral vein was cannulated. In the GSH group and the γ-GCE group, 50 mg/kg of GSH or γ-GCE respectively were administered intravenously. Physiological saline was then infused for volume replacement in each group, as a continuous intravenous infusion at a rate of 0.8 ml/hr with an injection pump throughout the experiment. Thirty minutes after starting injection of physiological saline, the abdomon was opened by a midline incision and the liver hilus was exposed. According to the method described by Hasselgren, et al. in J. Surg. Res., Vol. 34, pp. 409-414, 1984, all vessels to the left and median lobes of the liver, more specifically, hepatic artery, portal vein and the bile duct, were clamped to produce an ischemic state for 2 hours. Since blood vessels to the remaining parts of the liver were not occluded by this method, poral stasis could be avoided which was of special relevance for circulation stability in rats. Thereafter, occlusion of all vessels was released by removing the clamp to allow reperfusion for 1 hour. The abdominal walls were closed during ischemia and reperfusion.
Using 18 rats in each group, the livers of 6 animals from each group were removed before ischemia, after 2 hours of ischemia, and after 1 hour of reperfusion, respectively. A portion of the liver from each animal was rapidly frozen in liquid nitrogen and used for measurement of glutathione,adenine nucleotides and lipid peroxide. From the remaining portion of the liver, mitochondria was immediately extracted according to the method described by Hogeboom and Schneider in the J. Biol. Chem., Vol. 172, p. 619, 1948. In other experiments, immediately after starting reperfusion, blood from the hepatic vein was collected using 6 rats from each group. These blood samples were then used to measure leaked adenine nucleotides. In addition, after 1 hour of said reperfusion, blood samples were also drawn, which were then used to measure the activity of the leaked liver cell enzymes.
Evaluation of ischemia-reperfusion injury was performed by measuring liver tissue (1) mitochondrial function, (2) glutathione concentration, (3) adenine nucleotides concentration, and (4) lipid peroxide concentration, as well as liver tissue derived (5) adenine nucleotides concentration in the hepatic vein immediately after starting reperfusion, and (6) liver cell enzyme activities in the blood after 1 hour of reperfusion. More specifically, the mitochondrial function in (1) was measured according to the method described by Chance, et al. in Adv. Enzymol., Vol. 17, p. 65, 1956. In addition, the quantitative determination of glutathione in (2) was performed using the same method as Experiment 1 on supernatant obtained by adding 10 vol/g of tissue weight of 2.5% (w/v) sulfosalicylic acid dihydrate aqueous solution to the liver tissue followed by homogenization and centrifugation. In addition, the quantitative determination of adenine nucleotides in (3) was performed by neutralizing the perchloric acid extract of the liver tissue with potassium hydroxide followed by removal of the precipitate and applying to an ion exchange HPLC column according to the method described by Sugino, et al. in J. Chromatogr., Vol. 361, pp. 427-431, 1986. In addition, the measurement of lipid peroxide in (4) was performed according to the thiobarbiturate method described by Ohkawa, et al. in Anal. Biochem., Vol. 95, p. 351, 1979. […]

[3] = tested on: ovalbumin inhalation model using guinea pigs; experiment: Airway responsiveness (Ach PC200) in ovalbumin inhalation model; conditions: guinea pig; 2% OA aerosol 10 days; 10 mg/kg i.p. twice daily for 10 days; FIG. 3
Procedure: Male Hartley guinea pigs weighing 350-400 g were divided into three groups, i.e., the control group, the ovalbumin (OA) group and the OA+γ-GCE group. The control group was allowed to inhale an aerosol of physiological saline for 7-8 minutes per day for 10 consecutive days. The OA group was allowed to inhale an aerosol of 2% OA in the same manner. The OA+γ-GCE group was allowed to similarly inhale an aerosol of 2% OA together with intraperitoneal administration of 10 mg/kg of γ-GCE twice daily for 10 days.
Evaluation of efficacy was performed by measuring (1) the minimum provocative concentration of acetylcholine (Ach) at which the respiratory resistance reached more than 200% of baseline (Ach Provocative Concentration 200) both before and after inhalation for 10 days, together with measuring (2) the number of pulmonary membrane β-receptors and adenylate cyclase activity, and (3) xanthine oxidase activities in lung tissue, bronchoalveolar lavage fluid and serum, following 10 days of inhalation.
Each of the measurements were made using 6 animals in each group, and the results were expressed as mean ± standard deviation. Evaluation of significance was performed using Dunnett's test. Cases of P being less than 0.05 were considered to be statistically significant.

## CCOC(=O)[C@H](CS)NC(=O)CC[C@H](N)C(=O)O [γ-GCE, γ-L-glutamyl-L-cysteine ethyl ester]
[1]
  Number of Ventricular Premature Beats, 1 Hour of Reperfusion: 32 ± 30
  Total Duration of Ventricular Tachycardia, 1 Hour of Reperfusion: 3 ± 5 s
  effect on total duration of ventricular tachycardia during reperfusion: remarkably suppressed its increase during reperfusion
  occurrence of arrhythmia (ventricular premature beats) during reperfusion: strikingly suppressed
  Number of Ventricular Premature Beats, 2 Hours of Ischemia: 40 ± 51
  Total Duration of Ventricular Tachycardia, 2 Hours of Ischemia: 1 ± 2 s
[2]
  effect on restoration of liver ATP following reperfusion: significantly promoted restoration of ATP following reperfusion
  Liver tissue ADP, after 1 hour reperfusion: 0.38 μmol/g wet liver weight
  Liver tissue AMP, after 1 hour reperfusion: 0.12 μmol/g wet liver weight
  Liver tissue ATP + ADP + AMP, after 1 hour reperfusion: 2.21 μmol/g wet liver weight
  Liver tissue ATP, after 1 hour reperfusion: 1.70 μmol/g wet liver weight
  Liver tissue ADP, after 2 hours ischemia: 0.17 μmol/g wet liver weight
  Liver tissue AMP, after 2 hours ischemia: 0.87 μmol/g wet liver weight
  Liver tissue ATP + ADP + AMP, after 2 hours ischemia: 1.10 μmol/g wet liver weight
  Liver tissue ATP, after 2 hours ischemia: 0.06 μmol/g wet liver weight
  Liver tissue ADP, before ischemia: 0.57 μmol/g wet liver weight
  Liver tissue AMP, before ischemia: 0.13 μmol/g wet liver weight
  Liver tissue ATP + ADP + AMP, before ischemia: 3.39 μmol/g wet liver weight
  Liver tissue ATP, before ischemia: 2.69 μmol/g wet liver weight
[2]; 2 hours ischemia
  effect on the reduction of liver ATP caused by ischemia: did not show any effects on the reduction of ATP caused by ischemia
[3]
  effect on increase in airway responsiveness (decrease in log[Ach PC200]) after OA inhalation: inhibited (1) the remarkable increase in airway responsiveness

## N[C@@H](CCC(=O)N[C@@H](CS)C(=O)NCC(=O)O)C(=O)O [GSH, reduced glutathione, reference compound]
[1]
  Number of Ventricular Premature Beats, 1 Hour of Reperfusion: 1731 ± 1574
  Total Duration of Ventricular Tachycardia, 1 Hour of Reperfusion: 983 ± 959 s
  effect on total duration of ventricular tachycardia during reperfusion: did not show such effect whatsoever
  occurrence of arrhythmia (ventricular premature beats) during reperfusion: not suppressed at all
  Number of Ventricular Premature Beats, 2 Hours of Ischemia: 42 ± 43
  Total Duration of Ventricular Tachycardia, 2 Hours of Ischemia: 1 ± 2 s
[2]
  effect on restoration of liver ATP following reperfusion: did not show any promotive effects on the restoration of ATP
  Liver tissue ADP, after 1 hour reperfusion: 0.38 μmol/g wet liver weight
  Liver tissue AMP, after 1 hour reperfusion: 0.15 μmol/g wet liver weight
  Liver tissue ATP + ADP + AMP, after 1 hour reperfusion: 1.66 μmol/g wet liver weight
  Liver tissue ATP, after 1 hour reperfusion: 1.13 μmol/g wet liver weight
  Liver tissue ADP, after 2 hours ischemia: 0.13 μmol/g wet liver weight
  Liver tissue AMP, after 2 hours ischemia: 0.73 μmol/g wet liver weight
  Liver tissue ATP + ADP + AMP, after 2 hours ischemia: 0.90 μmol/g wet liver weight
  Liver tissue ATP, after 2 hours ischemia: 0.04 μmol/g wet liver weight
  Liver tissue ADP, before ischemia: 0.65 μmol/g wet liver weight
  Liver tissue AMP, before ischemia: 0.18 μmol/g wet liver weight
  Liver tissue ATP + ADP + AMP, before ischemia: 3.40 μmol/g wet liver weight
  Liver tissue ATP, before ischemia: 2.57 μmol/g wet liver weight

Source: US6127342A, “Method for preventing or treating a lung disease caused by active oxygen and free radical injury” (Teijin Limited, priority 1991, dated 2000)
